Results published in US11369609B2, “Small molecule Wnt inhibitor as treatment for dyslipidemia” (Yale University, priority 2019, dated 2022).
Entries after “also recorded” stand apart in the source; their conditions may differ.

What was measured:
[1] = tested on: canonical Wnt signaling; experiment: Atherosclerosis in high fat diet-fed Apoe−/− and DKO TCF/Lef-LacZ mice; format: in vivo
Text: Apoe −/− and endothelial GR KO/Apo E KO double knockout (DKO) mice were fed a high fat diet containing 1.25% cholesterol (Research Diets) for the time indicated. In some experiments, animals of both genotype were bred to the BAT-GAL (ß-catenin/TCF/LEF) reporter transgenic mouse. Mice were sacrificed and the aortas removed. Aortas were stained with X-galactosidase (Sigma-Aldrich) according to the manufacturer's instructions. In other aortas, total RNA was extracted and cDNA was made as described above. The custom PCR array was used to evaluate pathways of interest as described. All studies were performed according to a protocol approved by the Institutional Care and use Committee at Yale University School of Medicine and were consistent with the National Institutes of Health Guidelines for the Care of Laboratory Animals.
Mice were fasted for 12-15 hours and blood was collected by retro-orbital venous puncture. Whole blood was spun down and plasma stored at −80° C. Total cholesterol and triglyceride levels were measured enzymatically by kits from Wako and Sigma, respectively, according to the manufacturer's instructions.
At the completion of high-fat diet feeding mice were anesthetized and euthanized. Mouse hearts were perfused with PBS and then 4% paraformaldehyde (PFA) and the aortas and were dissected out using a dissecting microscope and maintained in PFA overnight. Whole aortas were stained with Oil Red O (Sigma) to quantify lesion area. Oil Red O stock solution (35 ml, 0.2% weight/volume in methanol) was mixed with 10 ml 1 M NaOH and filtered. Aortas were briefly rinsed in 78% methanol, incubated in Oil Red O for 45 minutes and then destained in 78% methanol for 5 minutes and mounted on microscopic slides. Lipid staining and lesion size were quantified by averaging six sections from the same mouse using the IMAGE J program.
In order to visualize the activation of canonical Wnt signaling, Apoe^−/−, GR^fl/fl, Tie2 Cre−; TCF/Lef-LacZ (Apoe^−/−) mice were bred with Apoe^−/−, GR^fl/fl, Tie2 Cre+; TCF/Lef-LacZ (DKO) mice. Apoe^−/− and DKO mice were fed a high fat diet (HFD) for 12 weeks. The Wnt inhibitor (wnti) LGK974 at a dose of 5 mg/kg body weight, or vehicle, was administered 6 days/week by oral gavage from 4-12 weeks. The aortas of vehicle-treated control animals and wnti-treated animals (n=6-7/group) were stained for LacZ (FIG. 11B). A LacZ(−) aorta was included as a control. […] Aortic area stained is quantified in the corresponding graph (FIG. 11B). Body weight of the animals of both genotypes with and without Wnti treatment was measured. […] Triglycerides, total cholesterol and HDL cholesterol were measured after 12 weeks of diet feeding in animals of both genotypes in the presence of absence of Wnti. […] Lipid deposition in aortas of wnti- or vehicle-treated Apoe^−/− and DKO treated mice was analyzed by Oil Red O staining. Atherogenic lesion area was calculated by using the Image J program. […] Masson Trichrome and H&E staining was performed in the brachiocephalic artery of Wnti- or sham-treated Apoe^−/− and DKO treated mice (FIG. 11F). Lesion size was measured using Image J program.

[2] = tested on: canonical Wnt signaling; experiment: Renal fibrosis in diabetic GR^ECKO and control littermate mice treated with Wnt inhibitor; format: in vivo
Procedure: All experiments were performed in accordance with the National Institute of Health (NIH) Guidelines for the Care of Laboratory Animals. Mice lacking the endothelial glucocorticoid receptor (GR) (known as GR^ECKO) and those lacking this receptor on the Apo E null background (DKO) were generated as previously described (6). The induction of diabetes in CD-1 mice and C57B/L6 mice was performed according to previously established experimental protocols (38-42). Briefly, diabetes was induced in 10-week-old GR^ECKO mice with five consecutive intraperitoneal (IP) doses of streptozotocin (STZ) 50 mg/kg in 10 mmol/L citrate buffer (pH 4.5). Wnt inhibitor (LGK974) was provided to GR^ECKO and control littermate at 5 mg/kg at a frequency of six doses per week for 8 weeks (43). Etomoxir (20 mg/kg) and c75 (15 mg/kg) were dosed (ip) three times per week for 3 weeks in the GR^ECKO and control littermate. A single IP dose of 200 mg/kg STZ was used to induce diabetes in CD-1 mice. Fenofibrate (100 mg/kg), simvastatin (40 mg/kg), were dosed orally for 4 weeks in diabetic CD-1 mice. All mice were sacrificed after 4 weeks of treatment and tissues and blood were harvested. Urine albumin levels were assayed using a Mouse Albumin ELISA Kit (Exocell, Philadelphia, Pa.).
A point-counting method was utilized to evaluate the relative area of the mesangial matrix. PAS-stained glomeruli from each mouse were analyzed using a digital microscope screen grid containing 540 (27×20) points. Masson's trichrome-stained images were evaluated by ImageJ software, and the fibrotic areas were estimated.
Deparaffinized sections were incubated with picrosirius red solution for 1 hour at room temperature. The slides were washed twice with acetic acid solution for 30 seconds per wash. The slides were then dehydrated in absolute alcohol three times, cleared in xylene, and mounted with a synthetic resin. Sirius red staining was analyzed using ImageJ software, and fibrotic areas were quantified.
Frozen kidney sections (5 μm) were used for immunofluorescence; double positive labeling with CD31/αSMA, CD31/TGFβR1 and E-cadherin/αSMA was measured. Briefly, frozen sections were dried and placed in acetone for 10 min at −30° C. Once the sections were dried, they were washed twice in phosphate-buffered saline (PBS) for 5 min and then blocked in 2% bovine serum albumin/PBS for 30 min at room temperature. Thereafter, the sections were incubated in primary antibody (1:100) for 1 hour and washed in PBS (5 min) three times. Next, the sections were incubated with the secondary antibodies for 30 min, washed with PBS three times (5 min each), and mounted with mounting medium with DAPI (Vector Laboratories, Burlingame, Calif.). The immune-labeled sections were analyzed by fluorescence microscopy. For each mouse, original magnification of ×400 pictures were obtained from six different areas, and quantification was performed.
Frozen sections (5 μm) were used for the detection of EndMT and EMT. Cells undergoing EndMT were detected by double-positive labeling for CD31 and αSMA and/or TGFβR1. Cells undergoing EMT were detected by double-positive labeling for E-cadherin and αSMA. Sections were analyzed and quantified by fluorescence microscopy.
To determine whether Wnt inhibition could mitigate the renal fibrosis observed in diabetic mice lacking endothelial GR, a cohort of animals was treated with the Wnt inhibitor, LGK974. At the age of 8 weeks, control and GR^ECKO mice were injected with STZ 50 mg/kg for five consecutive days. Sixteen weeks after injection, LGK974 was administered by oral gavage for eight additional weeks (FIG. 16A).

[3] = 5 mg/kg oral gavage 6 days/week, weeks 4-12 of HFD, both genotypes
[4] = diabetic control vs diabetic GR^ECKO mice

## Cc1cc(-c2ncc(CC(=O)Nc3ccc(-c4cnccn4)cn3)cc2C)ccn1 [LGK974]
[1]; 5 mg/kg oral gavage 6 days/week, weeks 4-12 of HFD
  atherosclerosis prognosis / atherogenic phenotype: significantly improves the atherogenic phenotype; also recorded: surprising improvement in atherosclerosis prognosis
[1]; [3]
  activation of canonical Wnt signaling (LacZ staining in aortas): clearly attenuated
  body weight: no weight loss
[1]; Masson Trichrome and H&E staining
  lesion size in brachiocephalic arteries: dramatically reduced lesion size
[1]; after 12 weeks of HFD, both genotypes
  cholesterol: dramatic reduction in cholesterol; also recorded: enormous
[1]; both genotypes
  lipid deposition in aortas (Oil Red O staining): dramatic reduction in lipid deposition
[1]; in vivo use in atherogenic mouse model
  decrease in cholesterol levels: about 50%
[1]; mouse, in vivo
  H&E and Oil Red O staining in the aortic root of heart sections: histological improvement
[2]; GR^ECKO vs mouse model of diabetic kidney disease
  effect on Wnt signaling, fibrogenic phenotype and endothelial GR level in GR^ECKO: less evident
[2]; at sacrifice, among the groups, LGK974 oral gavage 8 weeks
  body weight: no differences
[2]; control and diabetic GR^ECKO mice
  level of EMT (E-cadherin/αSMA co-positive cells): significantly reduced
[2]; diabetic GR^ECKO and DKO mice (legend of FIG. 16)
  renal fibrosis: partially abrogates the renal fibrosis
[2]; diabetic GR^ECKO and diabetic control mice
  kidney weight: significant reduction
[2]; diabetic GR^ECKO mice
  EndMT (CD31/αSMA co-positive cells): less pronounced
  relative area of fibrosis: less pronounced, though still significant
  relative collagen deposition: less pronounced, though still significant
  tubular damage: less pronounced, though still significant
[2]; diabetic control mice
  EndMT (CD31/αSMA co-positive cells): significantly suppressed
  relative area of fibrosis: clearly improved
  relative collagen deposition: clearly improved
  tubular damage: clearly improved
[2]; [4]
  staining of fibronectin: A similar pattern was observed
  staining of β-catenin: A similar pattern was observed
